pIC50: −log10 of the molar value.
Molecular target: T1, epithelial sodium channel (ENaC) (Mus musculus, UniProt Q61180+Q9WU38+Q9WU39)
T1 construct: Mouse kidney M-1 cells were cultivated in DMEM containing 5% FCS and 5 μM dexamethasone; endogenous in cells; host or cells: mouse kidney M-1 cells
T1 sequence (Q61180 1-699): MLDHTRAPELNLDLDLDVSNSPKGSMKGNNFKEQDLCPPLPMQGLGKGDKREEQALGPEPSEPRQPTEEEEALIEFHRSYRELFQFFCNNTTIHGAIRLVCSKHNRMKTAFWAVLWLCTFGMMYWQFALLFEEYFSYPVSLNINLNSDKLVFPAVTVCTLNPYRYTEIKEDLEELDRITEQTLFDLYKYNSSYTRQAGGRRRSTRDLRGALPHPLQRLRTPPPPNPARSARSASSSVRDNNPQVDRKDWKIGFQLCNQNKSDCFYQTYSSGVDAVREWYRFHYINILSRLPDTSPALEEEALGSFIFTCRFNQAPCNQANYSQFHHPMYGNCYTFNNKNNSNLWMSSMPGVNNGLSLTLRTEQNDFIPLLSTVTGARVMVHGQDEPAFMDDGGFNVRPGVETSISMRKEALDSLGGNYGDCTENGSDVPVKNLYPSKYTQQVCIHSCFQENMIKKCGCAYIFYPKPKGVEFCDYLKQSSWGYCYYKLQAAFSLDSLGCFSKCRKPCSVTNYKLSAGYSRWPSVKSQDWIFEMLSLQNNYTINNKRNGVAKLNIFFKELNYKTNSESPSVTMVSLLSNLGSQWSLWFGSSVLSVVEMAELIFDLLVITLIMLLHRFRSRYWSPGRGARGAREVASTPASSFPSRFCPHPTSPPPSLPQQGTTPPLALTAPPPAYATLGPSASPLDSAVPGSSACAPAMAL
T1 sequence (Q9WU38 1-638): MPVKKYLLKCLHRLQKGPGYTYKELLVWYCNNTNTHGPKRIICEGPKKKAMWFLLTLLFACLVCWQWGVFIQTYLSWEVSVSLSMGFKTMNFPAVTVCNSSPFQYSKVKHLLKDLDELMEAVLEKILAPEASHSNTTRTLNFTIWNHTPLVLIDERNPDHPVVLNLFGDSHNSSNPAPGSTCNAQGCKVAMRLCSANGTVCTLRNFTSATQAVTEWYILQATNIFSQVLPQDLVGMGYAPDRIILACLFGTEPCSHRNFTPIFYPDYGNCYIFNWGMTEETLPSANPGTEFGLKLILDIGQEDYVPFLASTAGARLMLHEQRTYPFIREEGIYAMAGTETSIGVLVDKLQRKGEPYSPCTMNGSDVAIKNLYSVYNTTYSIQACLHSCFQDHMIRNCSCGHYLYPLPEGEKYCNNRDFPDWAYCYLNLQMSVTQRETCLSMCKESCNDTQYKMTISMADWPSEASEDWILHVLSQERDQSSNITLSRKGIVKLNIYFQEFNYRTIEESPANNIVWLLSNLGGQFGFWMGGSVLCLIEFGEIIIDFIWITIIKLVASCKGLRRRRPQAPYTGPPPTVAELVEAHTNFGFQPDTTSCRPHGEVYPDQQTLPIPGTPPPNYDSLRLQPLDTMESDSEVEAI
T1 sequence (Q9WU39 1-655): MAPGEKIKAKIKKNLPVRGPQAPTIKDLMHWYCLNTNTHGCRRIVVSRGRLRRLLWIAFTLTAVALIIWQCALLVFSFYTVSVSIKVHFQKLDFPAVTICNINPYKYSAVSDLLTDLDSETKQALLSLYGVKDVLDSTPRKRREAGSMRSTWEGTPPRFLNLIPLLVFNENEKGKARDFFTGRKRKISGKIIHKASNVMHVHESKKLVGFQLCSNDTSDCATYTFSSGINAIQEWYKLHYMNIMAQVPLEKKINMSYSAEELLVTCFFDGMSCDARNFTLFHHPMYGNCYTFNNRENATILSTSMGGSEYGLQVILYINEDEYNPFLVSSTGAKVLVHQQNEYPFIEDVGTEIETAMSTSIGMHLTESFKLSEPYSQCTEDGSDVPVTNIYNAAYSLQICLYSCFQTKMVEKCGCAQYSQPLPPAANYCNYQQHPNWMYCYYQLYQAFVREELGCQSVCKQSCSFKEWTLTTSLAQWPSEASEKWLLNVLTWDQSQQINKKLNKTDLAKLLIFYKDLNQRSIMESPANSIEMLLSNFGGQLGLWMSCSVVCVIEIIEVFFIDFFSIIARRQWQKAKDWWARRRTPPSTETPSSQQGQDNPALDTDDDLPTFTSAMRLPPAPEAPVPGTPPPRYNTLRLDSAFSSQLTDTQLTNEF
Assay: Ussing chamber: inhibition of amiloride sensitive short circuit current (I_sc) in M-1 cells
Assay type: cell-based
Conditions: Mouse kidney M-1 cells on transwell filters, Ussing chamber at 37° C., compound added to the apical solution
Experimental: Mouse kidney M-1 cells were cultivated in DMEM containing 5% FCS and 5 μM dexamethasone for 10 to 12 days on polyester transwell filters. Filters were inserted into a teflon-coated well-plate which fit into the in-house ussing chamber system. Prior to measurement the medium of M-1 cells was replaced with Caco-2 transport buffer (Invitrogen, Germany). During measurements, the Ussing chamber temperature was kept at 37° C. Short circuit currents (I_sc) were measured in the voltage-clamp mode using an in-house built amplifier (Boehringer Ingelheim, Biberach) with the software package Lab View for data acquisition and analysis. The transepithelial electrical resistance (TEER) was determined by the application of voltage steps of ±5 mV every 5 sec. Compounds were administered at a final concentration of 3 μM or at increasing concentrations (1-3-10 μM) to the apical solution. At the end of each experiment the amiloride sensitive I_SC was measured by adding 3 μM amiloride to the apical compartment. Results are expressed as inhibition in percent of the amiloride effect or as IC50. Results are listed in tables 1 to 5 and further examples listed above.

Row | Structure (SMILES) | pIC50
1 | CS(=O)(=O)N1CCC(CCc2ccccc2)(CNC(N)=NC(=O)c2nc(Cl)c(N)nc2N)CC1 [Example 1.1] | 7.47
2 | CN1CCC(CCc2ccccc2)(CNC(N)=NC(=O)c2nc(Cl)c(N)nc2N)CC1 [Example 1.3] | 7.48
3 | NC(=NC(=O)c1nc(Cl)c(N)nc1N)NCC1(CCc2ccccc2)CCN(C(=O)c2ccccc2)CC1 [Example 1.5] | 7.47
4 | NC(=NC(=O)c1nc(Cl)c(N)nc1N)NCC1(CCc2ccccc2)CCN(Cc2ccccc2)CC1 [Example 1.6] | 7.40
5 | COC(=O)CCC(=O)N1CCC(CCc2ccccc2)(CNC(N)=NC(=O)c2nc(Cl)c(N)nc2N)CC1 [Example 1.14] | 7.70
6 | C[N+]1(C)CCC(CCc2ccccc2)(CNC(N)=NC(=O)c2nc(Cl)c(N)nc2N)CC1 [Example 1.15] | 7.04
7 | COC(=O)CN1CCC(CCc2ccccc2)(CNC(N)=NC(=O)c2nc(Cl)c(N)nc2N)CC1 [Example 1.16, {4-[N′-(3,5-diamino-6-chloro-pyrazine-2-carbonyl)guanidinomethyl]-4-phenethyl-piperidin-1-yl}-acetic acid methyl ester] | 8.70
8 | COC(=O)c1ccc(CCC2(CNC(N)=NC(=O)c3nc(Cl)c(N)nc3N)CCN(C(=O)OC(C)(C)C)CC2)cc1 [Example 1.17] | 7.25
9 | COC(=O)CCNC(=O)N1CCC(CCc2ccccc2)(CNC(N)=NC(=O)c2nc(Cl)c(N)nc2N)CC1 [Example 1.19] | 7.62
10 | CC(C)(C)OC(=O)NCCC(=O)N1CCC(CCc2ccccc2)(CNC(N)=NC(=O)c2nc(Cl)c(N)nc2N)CC1 [Example 1.22] | 7.43
11 | CC(C)(C)OC(=O)NCC(=O)N1CCC(CCc2ccccc2)(CNC(N)=NC(=O)c2nc(Cl)c(N)nc2N)CC1 [Example 1.25] | 7.74
12 | CC(C)(C)OC(=O)NCCCCC(=O)N1CCC(CNC(N)=NC(=O)c2nc(Cl)c(N)nc2N)(Cc2ccccc2)CC1 [Example 1.26] | 7.72
13 | CC(C)(C)OC(=O)NCCCN1CCC(CCc2ccccc2)(CNC(N)=NC(=O)c2nc(Cl)c(N)nc2N)CC1 [Example 1.28] | 7.44
14 | CN(C)CCCN1CCC(CCc2ccccc2)(CNC(N)=NC(=O)c2nc(Cl)c(N)nc2N)CC1 [Example 1.29] | 7.07
15 | CN(C)CCCN1CCC(CNC(N)=NC(=O)c2nc(Cl)c(N)nc2N)(Cc2ccccc2)CC1 [Example 1.31] | 6.54
16 | CN(C)CCN1CCC(CCc2ccccc2)(CNC(N)=NC(=O)c2nc(Cl)c(N)nc2N)CC1 [Example 1.32] | 7.34
17 | CC(C)(C)OC(=O)NCCNC(=O)N1CCC(CCc2ccccc2)(CNC(N)=NC(=O)c2nc(Cl)c(N)nc2N)CC1 [Example 1.33] | 8.15
18 | CC(C)(C)OC(=O)NCCCNC(=O)N1CCC(CCc2ccccc2)(CNC(N)=NC(=O)c2nc(Cl)c(N)nc2N)CC1 [Example 1.34] | 8.00
19 | CC(C)(C)OC(=O)NCCCNC(=O)N1CCC(CNC(N)=NC(=O)c2nc(Cl)c(N)nc2N)(Cc2ccccc2)CC1 [Example 1.36] | 7.74
20 | CC(C)(C)OC(=O)NCCCN1CCC(CNC(N)=NC(=O)c2nc(Cl)c(N)nc2N)(Cc2ccccc2)CC1 [Example 1.37] | 7.19
21 | CN(C)CCN1CCC(CNC(N)=NC(=O)c2nc(Cl)c(N)nc2N)(Cc2ccccc2)CC1 [Example 1.41] | 7.04
22 | CC(C)(C)OC(=O)N1CCC(CNC(N)=NC(=O)c2nc(Cl)c(N)nc2N)(c2ccccc2)CC1 [Example 1.42] | 7.60
23 | CC(C)NC(=O)N1CCC(CNC(N)=NC(=O)c2nc(Cl)c(N)nc2N)(c2ccc3c(c2)OCO3)CC1 [Example 1.44] | 7.34
24 | COc1ccccc1C1(CNC(N)=NC(=O)c2nc(Cl)c(N)nc2N)CCN(C(=O)OC(C)(C)C)CC1 [Example 1.45] | 7.18
25 | COC(=O)CCC(=O)N1CCC(CNC(N)=NC(=O)c2nc(Cl)c(N)nc2N)(c2ccccc2)CC1 [Example 1.47] | 7.54
26 | CN(C)CC(=O)N1CCC(CCc2ccccc2)(CNC(=N)NC(=O)c2nc(Cl)c(N)nc2N)CC1 [Example 1.48] | 6.89
27 | C[N+](C)(C)CCCC(=O)N1CCC(CCc2ccccc2)(CNC(N)=NC(=O)c2nc(Cl)c(N)nc2N)CC1 [Example 1.50] | 7.82

More lines, now with the values ahead:

Row | pIC50 | Structure (SMILES)
28 | 8.10 | CC(C)NC(=O)N1CCC(CCc2ccccc2)(CNC(N)=NC(=O)c2nc(Cl)c(N)nc2N)CC1 [Example 1.2]
29 | 7.57 | NC(=O)N1CCC(CCc2ccccc2)(CNC(N)=NC(=O)c2nc(Cl)c(N)nc2N)CC1 [Example 1.4]
30 | 7.20 | CC(C)N1CCC(CCc2ccccc2)(CNC(N)=NC(=O)c2nc(Cl)c(N)nc2N)CC1 [Example 1.7]
31 | 7.77 | CC(C)NC(=O)N1CCC(CNC(N)=NC(=O)c2nc(Cl)c(N)nc2N)(Cc2ccccc2)CC1 [Example 1.8]
32 | 7.96 | COCC(=O)N1CCC(CCc2ccccc2)(CNC(N)=NC(=O)c2nc(Cl)c(N)nc2N)CC1 [Example 1.9]
33 | 7.44 | CN(C)CCNC(=O)N1CCC(CCc2ccccc2)(CNC(N)=NC(=O)c2nc(Cl)c(N)nc2N)CC1 [Example 1.10]
34 | 7.77 | CC(C)CC(=O)N1CCC(CCc2ccccc2)(CNC(N)=NC(=O)c2nc(Cl)c(N)nc2N)CC1 [Example 1.11]
35 | 7.92 | CCNC(=O)N1CCC(CCc2ccccc2)(CN/C(N)=N/C(=O)c2nc(Cl)c(N)nc2N)CC1 [Example 1.12]
36 | 7.89 | CCCC(=O)N1CCC(CCc2ccccc2)(CNC(N)=NC(=O)c2nc(Cl)c(N)nc2N)CC1 [Example 1.13]
37 | 7.55 | COC(=O)CNC(=O)N1CCC(CCc2ccccc2)(CNC(N)=NC(=O)c2nc(Cl)c(N)nc2N)CC1 [Example 1.18]
38 | 7.12 | COC(=O)CCC(=O)N1CCC(CNC(N)=NC(=O)c2nc(Cl)c(N)nc2N)(Cc2ccccc2)CC1 [Example 1.20]
39 | 7.57 | CC(C)(C)OC(=O)NCC(=O)N1CCC(CNC(N)=NC(=O)c2nc(Cl)c(N)nc2N)(Cc2ccccc2)CC1 [Example 1.24]
40 | 7.15 | COC(=O)CN1CCC(CNC(N)=NC(=O)c2nc(Cl)c(N)nc2N)(Cc2ccccc2)CC1 [Example 1.30]
41 | 7.38 | CN(C)CCCNC(=O)N1CCC(CNC(N)=NC(=O)c2nc(Cl)c(N)nc2N)(Cc2ccccc2)CC1 [Example 1.38]
42 | 7.39 | CC(C)NC(=O)N1CCC(CNC(N)=NC(=O)c2nc(Cl)c(N)nc2N)(c2ccccc2)CC1 [Example 1.43]
43 | 7.66 | C[N+](C)(C)CC(=O)N1CCC(CCc2ccccc2)(CNC(N)=NC(=O)c2nc(Cl)c(N)nc2N)CC1 [Example 1.49]
